# Data taken from ChEMBL document CHEMBL1201862, “PubChem BioAssay data set” (2004).
# The source made the active and inactive calls.
# Tests used:
# [1] = target: Eukaryotic translation initiation factor 4E (Mus musculus, UniProt P63073); experiment: eIF4E–eIF4G protein interaction inhibitors, dose response, biochemical, TR-FRET (AID 855); assay type: functional;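 further: potency for disrupting eIF4E binding to eIF4GI seen as loss of FRET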
# [2] = target: T1, Long-chain-fatty-acid--AMP ligase FadD28 (Mycobacterium tuberculosis, UniProt P9WQ59); experiment: Fluorescence polarization aasay to screen for inhibitors that compete for the binding of FadD28 to a bisubstrate Measured in Biochemical System Using Plate Reader - 2147-01_Inhibitor_Dose_CherryPick_Activity.; assay type: functional, Mycobacterium tuberculosis H37Rv
# T1 sequence (P9WQ59 whole entry): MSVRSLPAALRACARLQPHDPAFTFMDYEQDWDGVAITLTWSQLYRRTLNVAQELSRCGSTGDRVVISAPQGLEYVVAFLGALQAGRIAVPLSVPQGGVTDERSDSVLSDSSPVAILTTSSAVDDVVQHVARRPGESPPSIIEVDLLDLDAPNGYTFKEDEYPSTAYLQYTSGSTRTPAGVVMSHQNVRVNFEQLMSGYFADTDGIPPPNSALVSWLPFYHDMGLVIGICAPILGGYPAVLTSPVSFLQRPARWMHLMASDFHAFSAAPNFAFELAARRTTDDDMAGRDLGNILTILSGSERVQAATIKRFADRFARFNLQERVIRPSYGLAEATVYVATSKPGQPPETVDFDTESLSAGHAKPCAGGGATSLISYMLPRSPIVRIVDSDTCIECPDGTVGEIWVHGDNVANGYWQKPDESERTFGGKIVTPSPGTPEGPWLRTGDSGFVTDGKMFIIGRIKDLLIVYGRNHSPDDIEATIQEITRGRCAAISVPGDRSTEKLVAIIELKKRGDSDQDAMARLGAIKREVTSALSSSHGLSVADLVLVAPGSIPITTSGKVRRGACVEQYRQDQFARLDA
# Cytochrome P450 3A4 = Cytochrome P450 3A4 (Homo sapiens, UniProt P08684); conditions: Potency;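 further: confirmatory qHTS run detecting inhibitors and substrates of CYP3A4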
# [3] = target: T2, Endoribonuclease toxin MazF (Escherichia coli K-12, UniProt P0AE70); experiment: MazF toxin RNase activators, dose response, biochemical, fluorescence, single-stranded RNA substrate, uHTS hits (AID 588481); assay type: functional
# T2 sequence (P0AE70 whole entry): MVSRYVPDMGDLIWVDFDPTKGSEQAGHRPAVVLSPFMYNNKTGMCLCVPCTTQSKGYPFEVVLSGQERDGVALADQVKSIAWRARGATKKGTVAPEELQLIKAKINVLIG
# [4] = target: T2, Endoribonuclease toxin MazF; experiment: fluorescent RNA oligo signal without MazF, dose response, counter-screen for MazEF activator project, biochemical, fluorescence, single-stranded RNase substrate (AID 588502); assay type: functional
# [5] = target: T3, Corticotropin-releasing factor receptor 2/Corticotropin-releasing factor-binding protein (Homo sapiens, UniProt P24387+Q13324); experiment: activators of CRF receptor 2 with binding protein – uHTS hits, confirmation (AID 602473); assay type: functional; conditions: read-out: EC50_Mean
# T3 sequence (Q13324 whole entry): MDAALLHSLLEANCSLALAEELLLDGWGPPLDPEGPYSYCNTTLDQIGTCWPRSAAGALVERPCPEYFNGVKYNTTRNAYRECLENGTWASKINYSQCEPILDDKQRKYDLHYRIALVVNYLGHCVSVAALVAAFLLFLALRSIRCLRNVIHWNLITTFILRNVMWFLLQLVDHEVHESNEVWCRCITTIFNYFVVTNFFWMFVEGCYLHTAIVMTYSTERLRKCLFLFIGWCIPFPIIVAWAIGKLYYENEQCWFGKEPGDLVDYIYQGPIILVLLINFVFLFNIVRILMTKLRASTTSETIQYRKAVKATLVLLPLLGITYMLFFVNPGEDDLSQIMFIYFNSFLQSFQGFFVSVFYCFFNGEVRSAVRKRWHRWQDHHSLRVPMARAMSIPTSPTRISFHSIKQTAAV
# T3 sequence (P24387 whole entry): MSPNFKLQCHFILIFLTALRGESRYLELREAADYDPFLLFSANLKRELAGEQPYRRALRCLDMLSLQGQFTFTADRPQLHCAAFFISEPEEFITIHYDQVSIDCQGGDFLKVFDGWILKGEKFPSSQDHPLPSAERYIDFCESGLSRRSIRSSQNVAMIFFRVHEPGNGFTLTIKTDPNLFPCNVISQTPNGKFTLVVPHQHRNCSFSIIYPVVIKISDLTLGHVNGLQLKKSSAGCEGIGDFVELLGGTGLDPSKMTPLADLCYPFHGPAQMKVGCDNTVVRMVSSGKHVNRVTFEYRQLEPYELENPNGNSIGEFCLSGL
# [6] = tested on: Streptococcus sp. 'group A'; experiment: growth inhibition of control SK(-) GAS strain, dose response, counter-screen for streptokinase expression inhibitor project, luminescence, kanamycin, BacTiterGlo, confirmation (AID 1900); assay type: functional, organism-based
# Streptokinase A = target: T4, Streptokinase A (Streptococcus pyogenes serotype M1, UniProt P10520); experiment: S. pyogenes streptokinase expression inhibitors, potency, dose response, plasminogen activation absorbance, OD405 (AID 1914); assay type: functional, Streptococcus pyogenes M1 GAS;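 further: secreted streptokinase activity via plasminogen activation per viability signal from cell pellet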
# T4 sequence (P10520 whole entry): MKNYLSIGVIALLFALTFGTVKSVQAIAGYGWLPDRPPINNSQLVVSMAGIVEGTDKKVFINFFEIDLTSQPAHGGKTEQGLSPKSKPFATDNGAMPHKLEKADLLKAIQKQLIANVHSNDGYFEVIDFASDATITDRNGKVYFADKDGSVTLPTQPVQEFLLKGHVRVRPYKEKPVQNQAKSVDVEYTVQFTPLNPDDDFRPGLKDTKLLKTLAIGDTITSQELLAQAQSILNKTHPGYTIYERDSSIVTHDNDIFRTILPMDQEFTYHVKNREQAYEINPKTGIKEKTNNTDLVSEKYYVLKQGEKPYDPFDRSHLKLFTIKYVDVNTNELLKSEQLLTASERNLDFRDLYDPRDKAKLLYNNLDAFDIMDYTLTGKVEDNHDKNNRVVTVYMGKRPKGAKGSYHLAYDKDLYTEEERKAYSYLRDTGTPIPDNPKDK
# Streptococcus = experiment: Group A Streptococcus viability loss, dose response, counter-screen for streptokinase expression inhibitor project, luminescence, BacTiterGlo (AID 1915); assay type: functional, organism-based;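 further: potency for reduction of bacterial viability or growth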
# [7] = Luminescence Cell-Based Dose Retest to Confirm Inhibitors of Cancer Stem Cells. [Related pubchem assays (depositor defined):AID2717, AID2721]; assay type: functional; conditions: Homo sapiens
# Genome polyprotein = Genome polyprotein (dengue virus type 2, UniProt P29990); experiment: Dengue-2 NS5 methyltransferase inhibitors, primary screen, biochemical, confirmation dose response (AID 588689); assay type: functional
# [8] = target: T5, Calpain-2 catalytic subunit (Sus scrofa, UniProt P43367); experiment: pig calpain II inhibitor potency, dose response, biochemical, fluorogenic peptide substrate (AID 1420); assay type: functional
# T5 sequence (P43367 whole entry): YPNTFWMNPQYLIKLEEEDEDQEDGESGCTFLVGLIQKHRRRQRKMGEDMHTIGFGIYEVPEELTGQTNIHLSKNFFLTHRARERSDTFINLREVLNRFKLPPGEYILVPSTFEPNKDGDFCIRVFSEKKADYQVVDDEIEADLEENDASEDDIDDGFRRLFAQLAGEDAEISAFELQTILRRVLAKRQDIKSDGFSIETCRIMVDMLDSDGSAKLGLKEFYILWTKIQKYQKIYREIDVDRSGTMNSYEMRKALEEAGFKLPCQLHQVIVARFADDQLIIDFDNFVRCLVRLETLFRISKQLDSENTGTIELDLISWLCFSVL
# [9] = HEp-2 cell cytotoxicity, dose response, cytotoxicity control for RSV inhibitor project, HTS (AID 2410); assay type: functional; conditions: human respiratory syncytial virus
# [10] = target: FAD-linked sulfhydryl oxidase ALR (Homo sapiens, UniProt P55789); experiment: inhibitors of human ALR sulfhydryl oxidase, dose response, biochemical, H2O2 detection, luminescence, cherry-pick (AID 493248)
# [11] = microbe, parasite or virus in culture; assay type: functional; conditions: Mycobacterium tuberculosis
# Cytochrome P450 2C9 = Cytochrome P450 2C9 (Homo sapiens, UniProt P11712)
# Cytochrome P450 2C9, sequence (P11712 whole entry): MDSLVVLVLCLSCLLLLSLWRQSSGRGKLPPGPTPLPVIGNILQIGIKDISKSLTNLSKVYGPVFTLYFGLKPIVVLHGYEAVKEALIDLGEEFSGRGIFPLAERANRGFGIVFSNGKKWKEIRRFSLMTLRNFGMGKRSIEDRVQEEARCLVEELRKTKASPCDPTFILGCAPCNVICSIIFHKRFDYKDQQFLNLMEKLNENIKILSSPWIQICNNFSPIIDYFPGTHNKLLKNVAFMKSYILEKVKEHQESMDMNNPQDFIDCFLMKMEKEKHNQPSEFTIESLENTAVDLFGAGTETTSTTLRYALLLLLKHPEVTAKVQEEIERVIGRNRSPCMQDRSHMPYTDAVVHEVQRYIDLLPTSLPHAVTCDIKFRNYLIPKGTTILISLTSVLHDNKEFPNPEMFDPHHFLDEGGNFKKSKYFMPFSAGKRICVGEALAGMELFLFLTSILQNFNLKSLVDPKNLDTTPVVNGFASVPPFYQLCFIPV
# Cytochrome P450 3A4, sequence (P08684 whole entry): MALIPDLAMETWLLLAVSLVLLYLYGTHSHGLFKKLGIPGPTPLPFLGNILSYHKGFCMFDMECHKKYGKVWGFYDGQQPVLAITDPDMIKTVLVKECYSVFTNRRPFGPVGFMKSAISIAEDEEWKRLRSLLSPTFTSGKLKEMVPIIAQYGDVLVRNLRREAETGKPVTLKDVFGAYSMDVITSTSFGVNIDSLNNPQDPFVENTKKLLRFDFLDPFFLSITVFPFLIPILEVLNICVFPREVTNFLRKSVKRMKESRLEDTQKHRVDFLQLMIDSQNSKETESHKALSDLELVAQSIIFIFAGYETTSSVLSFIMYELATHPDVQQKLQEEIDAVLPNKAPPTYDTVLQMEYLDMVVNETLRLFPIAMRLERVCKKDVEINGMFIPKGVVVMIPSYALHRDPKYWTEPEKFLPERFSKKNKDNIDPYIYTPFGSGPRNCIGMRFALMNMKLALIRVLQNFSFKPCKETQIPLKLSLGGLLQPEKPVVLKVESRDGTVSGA
# Eukaryotic translation initiation factor 4E, sequence (P63073 whole entry): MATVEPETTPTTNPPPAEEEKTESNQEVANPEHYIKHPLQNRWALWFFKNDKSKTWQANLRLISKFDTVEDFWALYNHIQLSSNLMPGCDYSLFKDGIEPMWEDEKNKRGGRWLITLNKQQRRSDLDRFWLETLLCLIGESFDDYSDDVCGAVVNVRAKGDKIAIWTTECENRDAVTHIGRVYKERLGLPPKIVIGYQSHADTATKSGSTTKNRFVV
# FAD-linked sulfhydryl oxidase ALR, sequence (P55789 whole entry): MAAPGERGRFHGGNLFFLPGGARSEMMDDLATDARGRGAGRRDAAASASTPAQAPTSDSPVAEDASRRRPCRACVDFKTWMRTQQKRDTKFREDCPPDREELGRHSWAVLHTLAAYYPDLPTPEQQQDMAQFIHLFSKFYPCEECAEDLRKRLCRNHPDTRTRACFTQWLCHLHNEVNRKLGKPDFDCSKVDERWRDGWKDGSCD
# Genome polyprotein, sequence (P29990 2492-3391 limits assumed): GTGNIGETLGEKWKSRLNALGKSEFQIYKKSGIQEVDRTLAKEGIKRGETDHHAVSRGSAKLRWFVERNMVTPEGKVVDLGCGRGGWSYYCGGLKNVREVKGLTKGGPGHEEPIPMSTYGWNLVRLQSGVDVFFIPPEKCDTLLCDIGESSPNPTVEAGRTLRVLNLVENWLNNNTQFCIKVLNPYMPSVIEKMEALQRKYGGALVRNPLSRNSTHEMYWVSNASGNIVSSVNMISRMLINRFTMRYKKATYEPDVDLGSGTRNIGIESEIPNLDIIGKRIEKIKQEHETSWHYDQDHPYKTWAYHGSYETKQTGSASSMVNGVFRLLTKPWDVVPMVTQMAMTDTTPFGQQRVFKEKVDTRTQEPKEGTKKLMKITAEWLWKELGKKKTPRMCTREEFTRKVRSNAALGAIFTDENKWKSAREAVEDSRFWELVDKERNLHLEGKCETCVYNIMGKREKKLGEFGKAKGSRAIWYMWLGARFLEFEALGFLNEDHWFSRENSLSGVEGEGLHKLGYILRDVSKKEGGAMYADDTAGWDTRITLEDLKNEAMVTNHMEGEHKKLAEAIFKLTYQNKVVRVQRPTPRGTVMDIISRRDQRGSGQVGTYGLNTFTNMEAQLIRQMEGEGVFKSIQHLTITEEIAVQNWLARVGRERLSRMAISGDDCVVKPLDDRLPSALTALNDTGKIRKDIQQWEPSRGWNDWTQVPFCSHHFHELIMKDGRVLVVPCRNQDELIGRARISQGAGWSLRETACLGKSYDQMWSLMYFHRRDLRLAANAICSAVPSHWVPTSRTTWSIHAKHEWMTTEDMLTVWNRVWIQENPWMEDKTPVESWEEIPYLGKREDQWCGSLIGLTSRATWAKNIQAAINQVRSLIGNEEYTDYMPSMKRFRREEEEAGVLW
smiles,measurement,setting,value
O=C(CNC(=O)c1ccco1)N=Nc1c(O)[nH]c2ccc([N+](=O)[O-])cc12,IC50,cells,20.6 µM (active)
CCc1ccc(C(=O)NNC(=O)OC)cc1,IC50,[1],50 µM (inactive)
COc1cc(/C=C2\SC(=S)N(CC(=O)Nc3cccnc3)C2=O)cc(OC)c1OC,AC50,[2],72.2 µM (active)
O=C1c2cccnc2C(Nc2ccccc2)N1Cc1ccco1 (stereo unspecified),IC50,cells,15.1 µM (active)
NS(=O)(=O)c1ccc(NC(=O)COc2ccc(C(=O)c3ccc(F)cc3)cc2)cc1,AC50,[2],> 100 µM (inactive)
COC(=O)C1(C)C=CC2(CCCCC2)N1C(=O)c1ccccc1 (stereo unspecified),AC50,Cytochrome P450 3A4,20 µM (inconclusive)
CCOc1ccc(N2C(=O)NC(=O)/C(=C\c3c[nH]c4ccccc34)C2=O)cc1,EC50,[3],> 99 µM (inactive)
same,EC50,[4],16.3 µM (active)
same,EC50,[5],15.4 µM (active)
Cc1ccc(S(=O)(=O)NCC(=O)Nc2ccc3c(c2)OCCO3)cc1,AC50,[2],> 100 µM (inactive)
Cc1ccc(F)c(NC(=O)/C(C#N)=C(\O)c2ccc(C(C)(C)C)cc2)c1,EC50,[6],16.7 µM (active)
same,EC50,Streptokinase A,> 150 µM (not active)
same,EC50,Streptococcus,> 150 µM (not active)
same,AC50,[7],1.96 µM (active)
same,IC50,Genome polyprotein,32.6 µM (active)
same,AC50,[2],> 100 µM (inactive)
Cc1ccccc1NC(=O)COC(=O)CCc1ccccc1,IC50,[8],20.8 µM (not active)
O=S(=O)(c1ccccc1Cl)N1CCCC(c2nc(O)c3nnn(Cc4ccc5c(c4)OCCO5)c3n2)C1 (stereo unspecified),CC50,[9],16.6 µM (active)
same,IC50,cells,10.1 µM (active)
CC1=C(C(=O)OCC(C)C)C23C(=O)c4ccccc4C2(O1)OC(N)=C3C#N (stereo unspecified),IC50,[8],> 50 µM (not active)
COc1cc(NC2c3ncccc3C(=O)N2Cc2ccco2)cc(OC)c1OC (stereo unspecified),IC50,cells,30.1 µM (active)
CN1c2ccccc2C(C)(C)C12CC(c1cccc(S(=O)(=O)N3CCCC3)c1)=NO2 (stereo unspecified),CC50,[9],17.7 µM (active)
same,IC50,cells,18.3 µM (active)
CC(C)CNS(=O)(=O)c1ccc(CCC(=O)Nc2cc(Cl)ccc2Oc2ccccc2)cc1,IC50,[8],5.08 µM (not active)
Cc1nn(Cc2cccc(C(=O)NC(C)c3ccc(C(C)(C)C)cc3)c2)c(C)c1[N+](=O)[O-] (stereo unspecified),IC50,[8],6.98 µM (not active)
COc1ccc(-c2csc(Nc3ccc(S(=O)(=O)Nc4cc(C)on4)cc3)n2)cc1,AC50,[10],12.9 µM (active)
same,AC50,[2],67.4 µM (active)
CC(=O)Nc1ccc(S(=O)(=O)Nc2cccc3[nH]ncc23)cc1,IC50,[8],> 50 µM (not active)
CN1C(=O)/C(=C/c2ccccc2Cl)Sc2ccc(C(=O)NCc3cccnc3)cc21,EC50,[6],4.4 µM (active)
same,EC50,Streptokinase A,> 150 µM (not active)
same,CC50,[11],> 40 µM (active)
same,IC50,[8],5.27 µM (not active)
same,EC50,Streptococcus,16.1 µM (active)
COC1(C#CC2C=CC(OC(C)=O)C(COC(C)=O)O2)CCCCC1 (stereo unspecified),AC50,Cytochrome P450 3A4,3.98 µM (inconclusive)
Cc1cccc(-n2c(=O)c3c4c(sc3n3c(=S)[nH]nc23)CCC4)c1,IC50,[1],50 µM (inactive)
COc1cccc(NC(=O)COc2ccc(N3CC(C(=O)NCC(C)C)CC3=O)cc2)c1 (stereo unspecified),IC50,[1],> 64 µM (inactive)
C/C(N)=C(/C#N)C(=O)COC(=O)CNS(=O)(=O)c1ccc2ccccc2c1,IC50,cells,11.8 µM (active)
CN(CCOc1ccc(C[C@H](Nc2ccccc2C(=O)c2ccccc2)C(=O)O)cc1)c1ccccn1,AC50,Cytochrome P450 3A4,3.16 µM (inconclusive)
same,AC50,Cytochrome P450 2C9,31.6 µM (inconclusive)
COc1cc(O)c2c(=O)c(O)c(-c3ccc(O)c(O)c3)oc2c1 [RHAMNETIN],AC50,Cytochrome P450 3A4,39.8 µM (inconclusive)
C=CCc1ccc2c(c1)OCO2 [SAFROLE],AC50,Cytochrome P450 3A4,3.16 µM (inconclusive)
